This note sets out measurements from patent US20230134986A1, “GLUCOSE TRIPTOLIDE CONJUGATES AND USES THEREOF” (The Johns Hopkins University, priority 2020, published 2023).

“Also recorded” adds a separate entry of the source.

The target of one assay is T1, TFIIH (Homo sapiens, UniProt P19447).
T1 construct: made in house
The experiment in a line: DNA-dependent ATPase activity assay of TFIIH. It counts as biochemical. On the procedure:
ATPase activity assay. The TFIIH complex was purified and its DNA-dependent ATPase assay was performed as previously described (Titov et al. (2011) Nat. Chem. Biol. 7:182-88). Briefly, a 10-μl reaction mixture contained 20 mM Tris (pH 7.9), 4 mM MgCl2, 1 μM of ATP, 0.1 μCi [^γ-^32P]ATP (3000 Ci/mmol), 100 μg/ml BSA, 100 nM RNA Polymerase II promoter positive control DNA, 1 nM TFIIH and indicated concentrations of triptolide or its analogs. The reactions were started by either addition of TFIIH for 2 hr and stopped by addition of 2 μl of 0.5 M EDTA. An aliquot of 1 μl reaction mixture was spotted on PEI-cellulose (sigma) and the chromatogram was developed with 0.5 M LiCi and 1 M HCOOH. The percent of ATP hydrolysis was quantified using a Typhoon FLA 9500 Variable Imager (GE Healthcare).

The subject of another assay is MDA MB231 cells. In words: MDA MB231 proliferation under hypoxia ([3H]-thymidine incorporation). The settings on record: MDA MB231, 1% O2, 48 h post treatment. The class given is cell-based, human. (Incorporation of labelled thymidine or its analogues reports DNA synthesis.)
The test system of the next assay is HeLa cells. The experiment in a line: Apoptosis signaling in HeLa cells (nuclear fragmentation, cytochrome c, caspase 3, PARP1). It counts as cell-based, human. Details: percentage of cells with nuclear fragmentation / cytochrome c release from mitochondria to cytosol: unit of the concentration uncertain. As to conditions: for percentage of cells with nuclear fragmentation: control 6%. The protocol: Western blot analysis. Whole cell lysates were prepared by adding lysis buffer [4% SDS, 20% glycerol, 10% 2-mercaptoethanol, 0.004% bromophenol blue, 0.125 M Tris-HCl (pH 6.8)] to the cell pellets for 30 minutes in ice followed by centrifugation at 12,000×g for 10 minutes then boiling for 5 minutes. For isolation of cytosolic and mitochondrial fractions of cytochrome C, cell pellets were resuspended in CLAMI buffer (250 mM sucrose, 70 mM KCl, […] digitonin in 1×PBS, protease inhibitor cocktail (1 tablet/10 ml CLAMI buffer)) then incubated on ice for 5 minutes. After centrifugation at 12,000×g for 5 minutes at 4° C., supernatant (cytoplasmic fraction) was collected and the pellet resuspended in lysis buffer as described above. Proteins were then separated by SDS-PAGE and transferred to nitrocellulose membranes (Bio-Rad). After blocking at room temperature for 1 h, membranes were incubated at 4′C overnight with the primary antibodies including anti-Rpb1 (Santa Cruz Biotechnology), anti-XPB (Biotechne), anti-Actin (Developmental Studies Hybridoma Bank), anti-GAPDH (Santa Cruz Biotechnology), anti-cytochrome C (Santa Cruz Biotechnology), anti-PARP1 (Santa Cruz Biotechnology), anti-cleaved caspase 3 (Cell Signaling Technology), anti-VDAC (ProteinTech), anti-HIF-1[…] (BD sciences), and anti-GLUT1 (Santa Cruz Biotechnology) antibodies followed by incubation with horseradish peroxidase-conjugated anti-mouse or anti-rabbit IgG (GE Healthcare) at room temperature for 2 hours. Antibody-protein complexes were detected using enhanced chemiluminescence (ECL) immunoblotting detection reagent (EMD Millipore).
Immunocytochemistry and cytochemistry. HeLa or PC3 cells (2×10^5) were seeded on a MatTek glass bottom culture dish (Fisher Scientific, Pittsburgh, Pa., USA) and allowed to adhere for 24 h. Cells were then treated with either DMSO or drugs for 6 or 24 h then fixed with 4% paraformaldehyde, permeabilized using 1×PBS with 0.5% triton X 100 then probed for endogenous RNA Polymerase II catalytic subunit Rpb1 or HIF-1α using anti-RNAPII (Santa Cruz Biotechnology) and anti-HIF-1α (BD sciences) antibodies, respectively. Detection was then done using anti-mouse Alexa Fluor 488 (Invitrogen). For nuclear staining, fixed and permeabilized cells were incubated in DAPI (ThermoFisher) or Hoechst 33258 (Sigma) for 30 minutes prior to imaging. Glucose uptake was monitored by incubating cells in 200 μM 2-NBDG (ThermoFisher) for 6 hours prior to fixation. Fluorescence was observed under the Nikon Eclipse TE200 Inverted microscope (Nikon Instruments Inc., Melville, N.Y., USA). ImageJ software (NIH, Bethesda, Md., USA; http://imagej.nih.gov/ij/index.html) was used to measure intracellular protein levels in immuno-cytochemistry samples (Li et al. (2015) Toxicological Sciences: an Official Journal of the Society of Toxicology 143:196-208). Rpb1 levels were measured using the MEASURE feature of ImageJ where all the background signals were subtracted from the intergrated density of nuclear Rpb1.

The mark [1] stands for this setting: HeLa, 3 (unit uncertain) compound 1.

Regarding `CC(C)[C@]12O[C@H]1[C@@H]1O[C@]13[C@]1(O[C@H]1C[C@H]1C4=C(CC[C@@]13C)C(=O)OC4)[C@@H]2OC(=O)CCCO[C@@H]1OC(CO)[C@@H](O)C(O)C1O` (stereo in doubt) [Compound 1], the “inhibition of ATPase activity of TFIIH” value at TFIIH is given as “only a small fraction of the activity was affected; also recorded: does not inhibit”. The “effect of hypoxia on anti-proliferative effect” value in the assay with MDA MB231 cells is “enhances the anti-proliferative effect”. The “percentage of cells with nuclear fragmentation” value in the assay on HeLa cells (HeLa, 1 (unit uncertain) compound 1) is given as 23%. Further, in the assay with HeLa cells (setting [1]), the “cytochrome c release from mitochondria to cytosol” value is given as “triggers the release of cytochrome c” and the “percentage of cells with nuclear fragmentation” value stood at 53%. Also, the caspase-3 activation entry in the assay on HeLa cells (HeLa, western blot) is “activated caspase-3 dose dependently”. Besides, in the assay with HeLa cells (increasing concentrations of compound 1, western blot), the PARP1 cleavage entry was “Pronounced PARP1 cleavage”.
